Values of other authors as cited in patent US20090312439A1, “USE OF ROLL COMPACTED PYROGENICALLY PRODUCED SILICON DIOXIDE IN PHARMACEUTICAL COMPOSITIONS” (priority 2006, published 2009).

For `C#C[C@]1(O)CC[C@H]2[C@@H]3CCc4cc(O)ccc4[C@H]3CC[C@@]21C` [ethinyl oestradiol], the saturation equilibrium value (pure active constituent in water, reached only after shaking over several days) is listed as 1.1 mg/100 ml and the “release of active constituent on contact with water” value (sorbate of 5.2 mg on 100 mg pyrogenic silicic acid (AEROSIL 200)) is listed as “supersaturated solution is formed”.
